According to US4486586A, “Cephalosporin derivatives” (Bristol-Myers Company, priority 1983, dated 1984):
≈ marks a conversion by molar mass, not a printed value.

Columns and labels:
[1] = test system: Penicillinsensitive S. aureus; assay: MIC, two-fold serial agar dilution in Mueller-Hinton agar, group (G+)-Ia; format: cell-based; conditions: Staphylococcus aureus, penicillin-sensitive S. aureus, 5 strains, read-out: Geometric Mean of MIC, (G+)-Ia
Method: (§1) In the primary evaluation of the compounds of this invention, the Minimum Inhibitory Concentrations (MIC's) of the compounds were determined by the two-fold serial agar dilution method in Mueller-Hinton agar against 32 strains of test organisms in six groups.

[2] = test system: Penicillinresistant S. aureus; assay: MIC, two-fold serial agar dilution in Mueller-Hinton agar, group (G+)-Ib; format: cell-based; conditions: Staphylococcus aureus, penicillin-resistant S. aureus, 5 strains, read-out: Geometric Mean of MIC, (G+)-Ib
Method: as §1
(G+)Ib: Penicillinresistant S. aureus (5

[3] = test system: Cephalothinsensitive E. coli, Kl. pneumoniae and Pr. mirabilis; assay: MIC, two-fold serial agar dilution in Mueller-Hinton agar, group (G-)-Ia; format: cell-based; conditions: cephalothin-sensitive E. coli, 5 strains, read-out: Geometric Mean of MIC, (G-)-Ia
Method: as §1
(G-)Ia: Cephalothinsensitive E. coli (2 strains), Kl. pneumoniae (1
strain) and Pr. mirabilis (2 strains)

[4] = test system: Cephalothinresistant E. coli and Kl. pneumoniae; assay: MIC, two-fold serial agar dilution in Mueller-Hinton agar, group (G-)-Ib; format: cell-based, E. coli (3 strains) and Kl. pneumoniae (3 strains); conditions: read-out: Geometric Mean of MIC, (G-)-Ib
Method: as §1
(G-)Ib: Cephalothinresistant E. coli (3 strains) and Kl. pneumoniae (3

[5] = test system: M. morganii, Ent. cloacae and Ser. marcescens; assay: MIC, two-fold serial agar dilution in Mueller-Hinton agar, group (G-)-II; format: cell-based; conditions: 5 strains, read-out: Geometric Mean of MIC, (G-)-II
Method: as §1
(G-)II: M. morganii (1 strain), Ent. cloacae (2 strains) andSer.

Ps. aeruginosa = assay: MIC, two-fold serial agar dilution in Mueller-Hinton agar, group (G-)-III; format: cell-based; conditions: Pseudomonas aeruginosa, 7 strains, read-out: Geometric Mean of MIC, (G-)-III
Method: as §1
(G-)III: Ps. aeruginosa (7 strains)

Structure (SMILES)	MIC [1]	MIC [2]	MIC [3]	MIC [4]	MIC [5]	MIC (Ps. aeruginosa)
Nc1nc(/C(=N/OC2(C(=O)O)CCC2)C(=O)NC2C(=O)N3C(C(=O)[O-])=C(/C=C/C[n+]4ccccc4)CS[C@H]23)cs1 (stereo partly drawn) [Compound I-5B, 7-[(Z)-2-(2-Aminothiazol-4-yl)-2-(1-carboxycyclobut-1-oxyimino)acetamido]-3-[(E)-3-pyridinio-1-propen-1-yl]-3-cephem-4-carboxylate]	1.6 µg/mL (≈ 2.74 µM)	4.7 µg/mL (≈ 8.04 µM)	0.019 µg/mL (≈ 0.0325 µM)	0.23 µg/mL (≈ 0.393 µM)	0.17 µg/mL (≈ 0.291 µM)	2 µg/mL (≈ 3.42 µM)
Nc1nc(/C(=N/OC2(C(=O)O)CCC2)C(=O)NC2C(=O)N3C(C(=O)[O-])=C(/C=C/C[n+]4ccc5sc(N)nc5c4)CS[C@H]23)cs1 (stereo partly drawn) [Compound I-5C, 7-[(Z)-2-(2-Aminothiazol-4-yl)-2-(1-carboxycyclobut-1-oxyimino)acetamido]-3-[(E)-3-(2-amino-5-thiazolo[4,5-c]pyridinio)-1-propen-1-yl]-3-cephem-4-carboxylate]	1.3 µg/mL (≈ 1.98 µM)	4.4 µg/mL (≈ 6.7 µM)	0.015 µg/mL (≈ 0.0228 µM)	0.15 µg/mL (≈ 0.228 µM)	0.14 µg/mL (≈ 0.213 µM)	2.7 µg/mL (≈ 4.11 µM)
C[N+]1(C/C=C/C2=C(C(=O)[O-])N3C(=O)C(NC(=O)/C(=N\OC4(C(=O)O)CCC4)c4csc(N)n4)[C@H]3SC2)CC=CC1 (stereo partly drawn) [Compound I-5F, 7-[(Z)-2-(2-Aminothiazol-4-yl)-2-(1-carboxycyclobut-1-oxyimino)acetamido]-3-[(E)-3-(1-methyl-3-pyrrolinio)-1-propen-1-yl]-3-cephem-4-carboxylate]	1.5 µg/mL (≈ 2.55 µM)	4 µg/mL (≈ 6.8 µM)	0.037 µg/mL (≈ 0.0629 µM)	0.22 µg/mL (≈ 0.374 µM)	0.17 µg/mL (≈ 0.289 µM)	2.4 µg/mL (≈ 4.08 µM)
Nc1cc[n+](C/C=C/C2=C(C(=O)[O-])N3C(=O)C(NC(=O)/C(=N\OC4(C(=O)O)CCC4)c4csc(N)n4)C3SC2)cc1 (stereo not drawn) [Compound I-5I, 7-[(Z)-2-(2-Aminothiazol-4-yl)-2-(1-carboxycyclobut-1-oxyimino)acetamido]-3-[(E)-3-(4-aminopyridino)-1-propen-1-yl]-3-cephem-4-carboxylate]	1.6 µg/mL (≈ 2.67 µM)	4.7 µg/mL (≈ 7.84 µM)	0.019 µg/mL (≈ 0.0317 µM)	0.2 µg/mL (≈ 0.334 µM)	0.22 µg/mL (≈ 0.367 µM)	3.5 µg/mL (≈ 5.84 µM)
